Results from PubChem BioAssay (NCI).
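Each compound was tested at five concentrations against cells in 96-well plates for 48 hours. TGI marks complete inhibition of growth.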 Where a SMILES comes first, the peptide text is derived from it. The star is where a group is joined. Boc = CC(C)(C)OC(=O)*; OBn = c1ccc(CO*)cc1

Tests used:
Test in all cases: inhibition of tumour cell growth, NCI panel, 48 h
A498 renal = system: A498 renal
HT29 colon = system: HT29 colon
MOLT-4 leukemia = system: MOLT-4 leukemia
NCI/ADR-RES ovarian = system: NCI/ADR-RES ovarian
OVCAR-4 ovarian = system: OVCAR-4 ovarian
PC-3 prostate = system: PC-3 prostate
RPMI-8226 leukemia = system: RPMI-8226 leukemia
SK-MEL-5 melanoma = system: SK-MEL-5 melanoma
UO-31 renal = system: UO-31 renal

| SMILES | TGI (A498 renal) | TGI (HT29 colon) | TGI (MOLT-4 leukemia) | TGI (NCI/ADR-RES ovarian) | TGI (OVCAR-4 ovarian) | TGI (PC-3 prostate) | TGI (RPMI-8226 leukemia) | TGI (SK-MEL-5 melanoma) | TGI (UO-31 renal) |
| --- | --- | --- | --- | --- | --- | --- | --- | --- | --- |
| C=CCn1c(-c2ccc(Cl)cc2Cl)csc1=Nc1c(C)n(C)n(-c2ccccc2)c1=O | 25.4 µM | 25.3 µM | 18.6 µM | 34.2 µM | 28.3 µM | 20.6 µM | > 46.3 µM | 13.1 µM | 24.3 µM |
| CCOC(=O)C1=C(C)NC(C)=C(C(=O)OCC)C1c1ccc(C)cc1 | 97.9 µM | > 100 µM | 74.6 µM |  | > 100 µM | 66 µM | 85.8 µM | 35.3 µM | > 100 µM |
| CC(=O)OCCOCCN1CCN(c2c(O)c3c(c(O)c2Cl)C(=O)C=CC3=O)CC1 | 3.56 µM | 2.17 µM | 2.51 µM | 1.21 µM | 1.32 µM | 3.28 µM | 1.42 µM | 2.97 µM | 2.47 µM |
| CCOP(C)(=O)/C(Cc1ccc(OC)c(OC)c1)=N\O (configuration not stated) | > 100 µM | > 100 µM | > 100 µM | > 100 µM | > 100 µM | > 100 µM | > 100 µM | > 100 µM | > 100 µM |
| CC(C)(SCc1ccccc1)C(N)C(=O)O (configuration not stated) | > 100 µM | > 100 µM | > 100 µM | > 100 µM | > 100 µM | > 100 µM | > 100 µM | > 100 µM | > 100 µM |
| NC(=O)SCC(=O)Nc1ccc2ncccc2c1 | > 100 µM | > 100 µM |  | > 100 µM | > 100 µM | > 100 µM | 76.9 µM | > 100 µM | > 100 µM |
| NC(=O)C1N=NSC1NC(=O)c1ccc([N+](=O)[O-])cc1 (configuration not stated) |  | > 100 µM | > 100 µM | > 100 µM | > 100 µM | > 100 µM | > 100 µM | 69.8 µM | > 100 µM |
| CCCCCCCCCCCCCCCCOc1ccc(/C=C/C2=[N+](CCCl)CCO2)cc1 | > 100 µM | > 100 µM | > 100 µM | > 100 µM | > 100 µM | > 100 µM | > 100 µM | > 100 µM | > 100 µM |
| Cc1c(-c2ccc(O)c(O)c2)oc(=O)c2c(O)cccc12 | 33.1 µM |  | > 100 µM | 29.7 µM | 40.4 µM | 52.1 µM | 50 µM | 24.8 µM | 24.4 µM |
| CS/C=C\C(=O)O[C@H]1C[C@@H]2[C@@H](O)c3occ(C)c3C[C@]2(C)[C@@H](C)C1 |  | 51.8 µM | 56.3 µM | 42.3 µM | 51.6 µM | > 100 µM | 79.9 µM | 28.2 µM |  |
| NC(=S)N/N=C1\CCCCC1C(O)(C(F)(F)Cl)C(F)(F)Cl (configuration not stated) | > 10 µM | > 10 µM | > 10 µM | > 10 µM | > 10 µM | > 10 µM | > 10 µM | > 10 µM |  |
| Cc1nn(-c2ccccc2)c2nc3ccc(Cl)cc3c(-c3ccccc3)c12 |  | > 100 µM | > 100 µM | > 100 µM | > 100 µM | > 100 µM | > 100 µM | > 100 µM | > 100 µM |
| CC(C)CC(NC(=O)C(Cc1ccccc1)NC(=O)C(Cc1ccccc1)NC(=O)OC(C)(C)C)C(=O)OCc1ccccc1 (stereo not drawn) (Boc-Phe-Phe-Leu-OBn; configuration not given here) | > 100 µM | > 100 µM | > 100 µM | > 100 µM |  | > 100 µM | > 100 µM | > 100 µM | > 100 µM |
| Cc1cc(=O)c2ccccc2n1CCCCCCCCCCn1c(C)cc(=O)c2ccccc21 | 28.9 µM | 29.9 µM | 21.7 µM | > 100 µM | 44.1 µM | > 100 µM |  | 6.27 µM | 25.6 µM |
| COC(=O)C1=COc2c(n(C)c3ccccc23)-c2ccccc21 | > 100 µM | > 100 µM | > 100 µM | > 100 µM |  | > 100 µM | > 100 µM | > 100 µM | > 100 µM |
| Cc1nc2ccccc2c(=O)n1/N=C/c1ccc(N(C)C)cc1 | > 100 µM | > 100 µM | > 100 µM | > 100 µM | > 100 µM | > 100 µM | > 100 µM | > 100 µM |  |
| Cc1ccc(C)c(COCCOCn2c(=O)[nH]c(=O)c3cc(Br)ccc32)c1 | > 100 µM | > 100 µM | > 100 µM | > 100 µM | > 100 µM | > 100 µM |  |  | > 100 µM |
| CC(C)N(/C(F)=N\C(=O)Nc1ccccc1C(F)(F)F)C(C)C |  | > 100 µM |  | > 100 µM |  | > 100 µM | > 100 µM | > 100 µM | > 100 µM |
| O=c1[nH]c(=O)n2n1C1C=CC2CC1 | > 100 µM | > 100 µM | > 100 µM | > 100 µM |  | > 100 µM | > 100 µM | > 100 µM | > 100 µM |
| Cc1[nH]c(=O)nc(N(CCO)/N=C/c2ccc(Cl)cc2)c1C(=O)Nc1ccc(Cl)cc1 | > 100 µM | > 100 µM | > 100 µM | > 100 µM | > 100 µM | > 100 µM |  | > 100 µM | > 100 µM |
| COc1cc(C(=O)OCCn2[nH]c(-c3ccc(Cl)cc3)nc2=S)cc(OC)c1OC | > 100 µM | > 100 µM | > 100 µM | > 100 µM | > 100 µM | > 100 µM |  | > 100 µM | 24.2 µM |
| COc1ccccc1/C=C/c1nc2ccccc2o1 | > 10 µM | > 10 µM | > 10 µM | > 10 µM | > 10 µM | > 10 µM | > 10 µM | > 10 µM |  |
| CC(=O)OC(=C(C#N)C#N)c1nccnc1C(C)=O | > 20 µM | 8.94 µM | > 20 µM | > 20 µM | > 20 µM | > 20 µM |  | > 20 µM | > 20 µM |
| CC#CCCCC1(C)CCCNC1=S (configuration not stated) |  | > 10 µM | > 10 µM | > 10 µM | > 10 µM | > 10 µM |  | > 10 µM | > 10 µM |
| O=C1C=C2CC[C@H]3[C@@H]4CC[C@H](Oc5c6ccccc6nc6ccccc56)[C@H]4CC[C@@H]3[C@H]2CC1 |  | > 100 µM |  | > 100 µM | > 100 µM | > 100 µM |  | > 100 µM |  |
